Reference: patent US8273880B2, “Pyrazole compounds with inhibitory activity against ROS kinase” (Korea Institute of Science and Technology, priority 2009, dated 2012)
“Also recorded” adds a separate entry of the source.

How the values were obtained:
Format in all cases: biochemical
[1] = biological target: T1, RocK1 (Homo sapiens, UniProt Q13464); assay: HotSpot kinase screening over 45 different kinases, single dose 10 μM; settings: single dose concentration of 10 μM, 10 μM ATP
T1 construct: purchased Reaction Biology Corporation
Procedure: (§1) Kinase screening was performed using a “HotSpot” assay platform commercially available from Reaction Biology Corporation. For this kinase screening, reaction buffers were based on 20 mM Hepes (pH 7.5), 10 mM MgCl2, 1 mM EGTA, 0.02% Brij35, 0.02 mg/mL BSA, 0.1 mM Na3VO4, 2 mM DTT, and 1% DMSO, with supplementary factors necessary for respective kinase reactions added thereto. In each enzyme reaction, […] of each kinase was used together with a fresh reaction buffer and appropriate supplementary factors. A solution of each compound in DMSO was added in a suitable concentration to the reaction buffer. Kinase reaction started with the introduction of […] (specific activity […]) and continued for 2 hours at room temperature.
(§2) 1) Screening of Compounds Over 45 Different Kinases
(§3) Each compound was tested twice at a single dose concentration of 10 μM. […] The reaction was performed with 10 μM ATP.

[2] = biological target: T2, LCK (Homo sapiens, UniProt P06239); assay: as above; settings: single dose concentration of 10 μM, 10 μM ATP
T2 construct: purchased Reaction Biology Corporation
T2 sequence (P06239 whole entry): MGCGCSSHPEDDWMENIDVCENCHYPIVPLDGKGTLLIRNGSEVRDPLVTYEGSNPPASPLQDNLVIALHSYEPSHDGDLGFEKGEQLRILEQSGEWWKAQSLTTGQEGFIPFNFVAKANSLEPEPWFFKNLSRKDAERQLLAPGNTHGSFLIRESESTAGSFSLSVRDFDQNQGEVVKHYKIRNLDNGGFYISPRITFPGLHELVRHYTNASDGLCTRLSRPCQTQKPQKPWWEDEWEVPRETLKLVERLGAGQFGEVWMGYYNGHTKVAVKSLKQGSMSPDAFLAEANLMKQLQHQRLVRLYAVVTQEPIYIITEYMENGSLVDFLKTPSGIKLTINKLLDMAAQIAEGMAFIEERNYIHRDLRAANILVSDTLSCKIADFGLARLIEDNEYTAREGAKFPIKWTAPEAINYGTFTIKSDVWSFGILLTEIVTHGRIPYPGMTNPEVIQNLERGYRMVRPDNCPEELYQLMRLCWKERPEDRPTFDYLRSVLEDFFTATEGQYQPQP
Procedure: as §1, §2, §3

[3] = biological target: T3, FAK/PTK2 (Homo sapiens, UniProt Q05397); assay: as above; settings: single dose concentration of 10 μM, 10 μM ATP
T3 construct: purchased Reaction Biology Corporation
T3 sequence (Q05397 whole entry): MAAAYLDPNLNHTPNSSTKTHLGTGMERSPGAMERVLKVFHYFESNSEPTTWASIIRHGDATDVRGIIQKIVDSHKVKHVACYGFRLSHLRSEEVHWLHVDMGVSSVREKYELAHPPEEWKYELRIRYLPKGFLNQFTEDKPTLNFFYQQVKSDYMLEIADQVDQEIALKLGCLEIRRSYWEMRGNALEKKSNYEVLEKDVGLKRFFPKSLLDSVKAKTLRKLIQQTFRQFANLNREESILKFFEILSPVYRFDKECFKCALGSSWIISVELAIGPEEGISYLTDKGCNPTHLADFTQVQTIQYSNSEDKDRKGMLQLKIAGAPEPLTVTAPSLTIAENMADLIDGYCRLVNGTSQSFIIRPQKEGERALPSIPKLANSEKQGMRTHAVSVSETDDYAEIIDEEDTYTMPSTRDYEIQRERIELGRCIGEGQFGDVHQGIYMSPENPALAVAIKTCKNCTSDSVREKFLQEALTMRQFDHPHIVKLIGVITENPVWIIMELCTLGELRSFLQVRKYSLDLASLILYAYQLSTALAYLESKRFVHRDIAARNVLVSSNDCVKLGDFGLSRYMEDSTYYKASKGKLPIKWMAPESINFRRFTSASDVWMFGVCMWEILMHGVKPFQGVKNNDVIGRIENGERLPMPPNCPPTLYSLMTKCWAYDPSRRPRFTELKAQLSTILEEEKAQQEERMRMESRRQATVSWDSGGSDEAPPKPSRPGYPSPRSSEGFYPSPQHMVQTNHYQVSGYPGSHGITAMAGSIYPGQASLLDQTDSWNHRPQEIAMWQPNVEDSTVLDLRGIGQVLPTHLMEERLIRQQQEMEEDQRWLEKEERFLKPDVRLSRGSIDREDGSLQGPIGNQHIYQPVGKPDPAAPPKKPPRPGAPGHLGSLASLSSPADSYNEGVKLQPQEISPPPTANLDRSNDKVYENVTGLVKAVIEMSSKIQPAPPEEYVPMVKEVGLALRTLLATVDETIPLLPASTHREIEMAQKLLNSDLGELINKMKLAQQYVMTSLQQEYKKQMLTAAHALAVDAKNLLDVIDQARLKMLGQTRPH
Procedure: as §1, §2, §3

[4] = biological target: T4, TIE2/TEK (Homo sapiens, UniProt Q02763); assay: as above; settings: single dose concentration of 10 μM, 10 μM ATP
T4 construct: purchased Reaction Biology Corporation
Procedure: as §1, §2, §3

[5] = biological target: T5, EGFR (Homo sapiens, UniProt P00533); assay: as above; settings: single dose concentration of 10 μM, 10 μM ATP
T5 construct: purchased Reaction Biology Corporation
Procedure: as §1, §2, §3

[6] = biological target: T6, DAPK1 (Homo sapiens, UniProt P53355); assay: as above; settings: single dose concentration of 10 μM, 10 μM ATP
T6 construct: purchased Reaction Biology Corporation
Procedure: as §1, §2, §3

[7] = biological target: T7, KDR/VEGFR2 (Homo sapiens, UniProt P35968); assay: as above; settings: single dose concentration of 10 μM, 10 μM ATP
T7 construct: purchased Reaction Biology Corporation
Procedure: as §1, §2, §3

[8] = biological target: T8, IKKa/CHUK (Homo sapiens, UniProt O15111); assay: as above; settings: single dose concentration of 10 μM, 10 μM ATP
T8 construct: purchased Reaction Biology Corporation
Procedure: as §1, §2, §3

[9] = biological target: T9, CK1epsilon (Homo sapiens, UniProt P49674); assay: as above; settings: single dose concentration of 10 μM, 10 μM ATP
T9 construct: purchased Reaction Biology Corporation
T9 sequence (P49674 whole entry): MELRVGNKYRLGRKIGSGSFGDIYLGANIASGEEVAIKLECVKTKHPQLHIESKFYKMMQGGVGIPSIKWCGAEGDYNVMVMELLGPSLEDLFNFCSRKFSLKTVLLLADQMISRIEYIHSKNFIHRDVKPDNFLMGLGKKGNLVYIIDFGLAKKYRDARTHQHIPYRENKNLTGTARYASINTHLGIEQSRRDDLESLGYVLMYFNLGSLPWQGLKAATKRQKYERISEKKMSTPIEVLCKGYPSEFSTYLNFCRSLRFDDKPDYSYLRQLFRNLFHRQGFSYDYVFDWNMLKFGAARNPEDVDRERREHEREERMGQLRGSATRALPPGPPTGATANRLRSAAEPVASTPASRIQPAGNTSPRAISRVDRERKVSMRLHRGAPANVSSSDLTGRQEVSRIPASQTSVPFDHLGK
Procedure: as §1, §2, §3

[10] = biological target: T10, MUSK (Homo sapiens, UniProt O15146); assay: as above; settings: single dose concentration of 10 μM, 10 μM ATP
T10 construct: purchased Reaction Biology Corporation
T10 sequence (O15146 24-869): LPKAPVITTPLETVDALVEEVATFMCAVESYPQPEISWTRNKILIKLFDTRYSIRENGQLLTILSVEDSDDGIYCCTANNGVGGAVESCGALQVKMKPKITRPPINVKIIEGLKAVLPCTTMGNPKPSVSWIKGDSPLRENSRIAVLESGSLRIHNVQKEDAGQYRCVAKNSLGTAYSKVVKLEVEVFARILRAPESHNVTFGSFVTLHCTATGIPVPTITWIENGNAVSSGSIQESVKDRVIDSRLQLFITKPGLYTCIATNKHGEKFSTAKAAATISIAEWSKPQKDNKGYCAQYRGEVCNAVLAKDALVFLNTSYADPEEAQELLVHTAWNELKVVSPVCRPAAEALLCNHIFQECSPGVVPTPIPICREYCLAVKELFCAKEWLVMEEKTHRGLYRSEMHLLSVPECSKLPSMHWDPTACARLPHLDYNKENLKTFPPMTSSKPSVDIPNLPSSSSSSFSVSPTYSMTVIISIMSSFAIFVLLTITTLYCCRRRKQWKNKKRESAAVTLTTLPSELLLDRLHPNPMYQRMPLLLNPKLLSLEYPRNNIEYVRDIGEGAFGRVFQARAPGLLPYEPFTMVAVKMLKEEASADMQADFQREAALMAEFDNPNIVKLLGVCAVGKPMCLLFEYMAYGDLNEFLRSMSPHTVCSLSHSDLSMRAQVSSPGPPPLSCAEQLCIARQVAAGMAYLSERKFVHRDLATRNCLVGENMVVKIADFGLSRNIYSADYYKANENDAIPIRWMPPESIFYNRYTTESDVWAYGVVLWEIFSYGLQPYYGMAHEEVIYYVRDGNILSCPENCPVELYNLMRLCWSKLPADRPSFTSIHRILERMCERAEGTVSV
Procedure: as §1, §2, §3

[11] = biological target: T11, FGFR1 (Homo sapiens, UniProt P11362); assay: as above; settings: single dose concentration of 10 μM, 10 μM ATP
T11 construct: purchased Reaction Biology Corporation
Procedure: as §1, §2, §3

[12] = biological target: T12, DNA-PK (Homo sapiens, UniProt P78527); assay: as above; settings: single dose concentration of 10 μM, 10 μM ATP
T12 construct: purchased Reaction Biology Corporation
Procedure: as §1, §2, §3

[13] = biological target: T13, PLK1 (Homo sapiens, UniProt P53350); assay: as above; settings: single dose concentration of 10 μM, 10 μM ATP
T13 construct: purchased Reaction Biology Corporation
Procedure: as §1, §2, §3

[14] = biological target: T14, SYK (Homo sapiens, UniProt P43405); assay: as above; settings: single dose concentration of 10 μM, 10 μM ATP
T14 construct: purchased Reaction Biology Corporation
Procedure: as §1, §2, §3

[15] = biological target: T15, P38a/MAPK14 (Homo sapiens, UniProt Q16539); assay: as above; settings: single dose concentration of 10 μM, 10 μM ATP
T15 construct: purchased Reaction Biology Corporation
T15 sequence (Q16539 whole entry): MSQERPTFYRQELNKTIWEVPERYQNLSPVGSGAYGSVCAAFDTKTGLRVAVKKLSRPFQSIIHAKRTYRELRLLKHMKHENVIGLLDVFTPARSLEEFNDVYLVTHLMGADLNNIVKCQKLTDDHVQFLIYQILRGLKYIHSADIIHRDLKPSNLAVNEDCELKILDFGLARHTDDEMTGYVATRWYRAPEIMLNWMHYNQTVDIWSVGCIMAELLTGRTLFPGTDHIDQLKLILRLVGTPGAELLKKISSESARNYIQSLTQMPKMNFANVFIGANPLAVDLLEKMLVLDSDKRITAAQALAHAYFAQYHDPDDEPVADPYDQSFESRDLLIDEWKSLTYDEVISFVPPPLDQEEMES
Procedure: as §1, §2, §3

[16] = biological target: T16, EPHA1 (Homo sapiens, UniProt P21709); assay: as above; settings: single dose concentration of 10 μM, 10 μM ATP
T16 construct: purchased Reaction Biology Corporation
T16 sequence (P21709 26-976): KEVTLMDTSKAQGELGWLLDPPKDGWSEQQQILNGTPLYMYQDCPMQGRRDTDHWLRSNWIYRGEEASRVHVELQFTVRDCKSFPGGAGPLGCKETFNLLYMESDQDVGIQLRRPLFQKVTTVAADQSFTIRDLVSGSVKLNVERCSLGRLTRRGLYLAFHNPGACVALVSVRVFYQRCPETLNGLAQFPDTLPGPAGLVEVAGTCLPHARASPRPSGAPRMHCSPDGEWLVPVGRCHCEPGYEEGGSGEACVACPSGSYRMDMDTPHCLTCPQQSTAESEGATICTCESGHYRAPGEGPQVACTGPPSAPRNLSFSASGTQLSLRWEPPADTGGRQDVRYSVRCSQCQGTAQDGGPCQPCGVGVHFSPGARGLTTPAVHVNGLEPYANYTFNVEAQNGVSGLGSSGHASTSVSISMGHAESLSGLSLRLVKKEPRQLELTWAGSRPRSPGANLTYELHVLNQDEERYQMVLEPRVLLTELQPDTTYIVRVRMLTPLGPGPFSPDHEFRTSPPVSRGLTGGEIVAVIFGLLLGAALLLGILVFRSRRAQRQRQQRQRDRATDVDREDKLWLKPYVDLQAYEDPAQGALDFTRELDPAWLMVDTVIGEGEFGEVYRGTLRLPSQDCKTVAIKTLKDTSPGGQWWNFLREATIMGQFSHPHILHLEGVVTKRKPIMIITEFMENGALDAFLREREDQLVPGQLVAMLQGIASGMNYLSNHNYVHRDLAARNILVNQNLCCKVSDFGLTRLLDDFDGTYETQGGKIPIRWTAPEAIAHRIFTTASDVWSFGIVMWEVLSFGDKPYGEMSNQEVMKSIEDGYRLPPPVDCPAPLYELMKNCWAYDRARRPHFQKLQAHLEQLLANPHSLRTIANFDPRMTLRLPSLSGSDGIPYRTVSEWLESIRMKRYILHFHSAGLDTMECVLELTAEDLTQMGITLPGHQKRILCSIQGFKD
Procedure: as §1, §2, §3

[17] = test system: RAF1; assay: as above; settings: single dose concentration of 10 μM, 10 μM ATP
Procedure: as §1, §2, §3

[18] = biological target: T17, PKCa (Homo sapiens, UniProt P17252); assay: as above; settings: single dose concentration of 10 μM, 10 μM ATP
T17 construct: purchased Reaction Biology Corporation
Procedure: as §1, §2, §3

[19] = biological target: T18, LYN (Homo sapiens, UniProt P07948); assay: as above; settings: single dose concentration of 10 μM, 10 μM ATP
T18 construct: purchased Reaction Biology Corporation
T18 sequence (P07948 whole entry): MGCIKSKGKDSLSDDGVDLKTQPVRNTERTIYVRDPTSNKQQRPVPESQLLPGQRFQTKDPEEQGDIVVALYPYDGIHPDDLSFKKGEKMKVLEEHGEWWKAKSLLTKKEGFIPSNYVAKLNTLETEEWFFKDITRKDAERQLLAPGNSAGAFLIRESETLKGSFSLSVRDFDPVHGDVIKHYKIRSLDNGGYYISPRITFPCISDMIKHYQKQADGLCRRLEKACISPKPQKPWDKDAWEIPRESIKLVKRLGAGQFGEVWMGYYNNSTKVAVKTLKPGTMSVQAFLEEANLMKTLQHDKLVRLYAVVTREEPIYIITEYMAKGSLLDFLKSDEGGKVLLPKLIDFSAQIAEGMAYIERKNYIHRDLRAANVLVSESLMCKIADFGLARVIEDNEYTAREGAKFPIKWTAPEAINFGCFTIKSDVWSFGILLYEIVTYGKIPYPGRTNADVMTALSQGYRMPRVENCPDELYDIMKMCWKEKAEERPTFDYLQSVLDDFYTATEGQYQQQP
Procedure: as §1, §2, §3

[20] = biological target: T19, CDK1/cyclinB (Homo sapiens, UniProt P06493); assay: as above; settings: single dose concentration of 10 μM, 10 μM ATP
T19 construct: purchased Reaction Biology Corporation
Procedure: as §1, §2, §3

[21] = biological target: T20, FGR (Homo sapiens, UniProt P09769); assay: as above; settings: single dose concentration of 10 μM, 10 μM ATP
T20 construct: purchased Reaction Biology Corporation
Procedure: as §1, §2, §3

[22] = biological target: T21, Aurora A (Homo sapiens, UniProt O14965); assay: as above; settings: single dose concentration of 10 μM, 10 μM ATP
T21 construct: purchased Reaction Biology Corporation
T21 sequence (O14965 whole entry): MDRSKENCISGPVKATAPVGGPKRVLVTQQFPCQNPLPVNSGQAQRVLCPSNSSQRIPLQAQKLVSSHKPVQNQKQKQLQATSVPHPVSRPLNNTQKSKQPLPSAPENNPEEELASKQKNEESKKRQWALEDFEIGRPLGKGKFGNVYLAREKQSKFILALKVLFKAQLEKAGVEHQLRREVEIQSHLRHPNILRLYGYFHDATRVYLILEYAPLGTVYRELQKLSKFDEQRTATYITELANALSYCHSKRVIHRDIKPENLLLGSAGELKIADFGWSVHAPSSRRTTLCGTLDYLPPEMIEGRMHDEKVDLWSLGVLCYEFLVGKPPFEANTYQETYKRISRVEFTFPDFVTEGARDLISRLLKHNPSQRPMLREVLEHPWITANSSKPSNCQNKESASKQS
Procedure: as §1, §2, §3

[23] = test system: 45 different kinases; assay: Kinase selectivity from screening over 45 different kinases
Procedure: as §1, §2, §3

[24] = biological target: ROS kinase (Homo sapiens, UniProt P08922); assay: ROS kinase screening (HotSpot, IC50 mode); design: purchased Reaction Biology Corporation; settings: 10-dose IC50 mode starting from 20 μM; 10 μM ATP; read-out: Inhibitory Activity against ROS (IC50)
Procedure: as §1
The reaction was performed with 10 μM ATP.

[25] = compared to enzyme activity in DMSO control

inhibition at 10 µM [1]: 11.7% | activity at 10 µM [1, 25]: 88.3% | inhibition at 10 µM [2]: 10.3% | activity at 10 µM [2, 25]: 89.7% | inhibition at 10 µM [3]: 3.43% | activity at 10 µM [3, 25]: 96.6% | inhibition at 10 µM [4]: 8.17% | activity at 10 µM [4, 25]: 91.8% | inhibition at 10 µM [5]: -2.23% | activity at 10 µM [5, 25]: 102% | inhibition at 10 µM [6]: -1.17% | activity at 10 µM [6, 25]: 101% | inhibition at 10 µM [7]: -5.84% | activity at 10 µM [7, 25]: 106% | inhibition at 10 µM [8]: 1.37% | activity at 10 µM [8, 25]: 98.6% | inhibition at 10 µM [9]: 9.32% | activity at 10 µM [9, 25]: 90.7% | inhibition at 10 µM [10]: -0.42% | activity at 10 µM [10, 25]: 100% | inhibition at 10 µM [11]: -8.05% | activity at 10 µM [11, 25]: 108% | inhibition at 10 µM [12]: 6.56% | activity at 10 µM [12, 25]: 93.4% | inhibition at 10 µM [13]: 5.85% | activity at 10 µM [13, 25]: 94.2% | inhibition at 10 µM [14]: 8.23% | activity at 10 µM [14, 25]: 91.8% | inhibition at 10 µM [15]: 5.27% | activity at 10 µM [15, 25]: 94.7% | inhibition at 10 µM [16]: 23.3% | activity at 10 µM [16, 25]: 76.7% | Inhibition (%) [17]: 20.39% | Activity (%) [17, 25]: 79.61% | inhibition at 10 µM [18]: 9.23% | activity at 10 µM [18, 25]: 90.8% | inhibition at 10 µM [19]: -1.45% | activity at 10 µM [19, 25]: 101% | inhibition at 10 µM [20]: 3.64% | activity at 10 µM [20, 25]: 96.4% | inhibition at 10 µM [21]: 3.34% | activity at 10 µM [21, 25]: 96.7% | inhibition at 10 µM [22]: 21.8% | activity at 10 µM [22, 25]: 78.2% | IC50 [24]: 199 nM
Compound: Cc1cc(O)cc(-c2nn(CC#N)cc2-c2cc(NC[C@H](C)O)nc(-c3cccnc3)n2)c1 [Example 10, [4-[6-(2(S)-hydroxypropylamino)-2-pyridin-3-yl-pyrimidin-4-yl]-3-(3-hydroxy-5-methylphenyl)-pyrazol-1-yl]acetonitrile]
Notes (selectivity for ROS) [23]: no inhibitory activity against almost all of the tested kinases, except for ROS kinase; also recorded: Selective for ROS
